Reference: ChEMBL document CHEMBL4627310, “Design, synthesis and biological evaluation of 3-nitro-1,8-naphthalimides as potential antitumor agents” (Bioorg Med Chem Lett, 2020)

Columns and labels:
A549 = assay: Antiproliferative activity against human A549 cells assessed as cell growth inhibition measured after 48 hrs by MTT assay; format: functional, cell-based; conditions: A549, 48 h
SK-OV-3 = assay: Antiproliferative activity against human SKOV3 cells assessed as cell growth inhibition measured after 48 hrs by MTT assay; format: functional, cell-based; conditions: SK-OV-3, 48 h
L02 = assay: Cytotoxicity against human HL7702 cells assessed as cell growth inhibition measured after 48 hrs by MTT assay; format: cell-based; conditions: L02, 48 h
SMMC-7721 = assay: Antiproliferative activity against human SMMC7721 cells assessed as cell growth inhibition measured after 48 hrs by MTT assay; format: functional, cell-based; conditions: SMMC-7721, 48 h
HepG2 [1] = assay: Antiproliferative activity against human HepG2 cells assessed as cell growth inhibition measured after 48 hrs by MTT assay; format: functional, cell-based; conditions: HepG2, 48 h
T-24 [2] = assay: Antiproliferative activity against human T24 cells assessed as cell growth inhibition measured after 48 hrs by MTT assay; format: functional, cell-based; conditions: T-24, 48 h
HepG2 [3] = assay: Anticancer activity against human HepG2 cells xenografted in mouse assessed as tumor growth inhibition by measuring T/C ratio at 5 mg/kg measured at day 14 relative to control; format: functional
T-24 [4] = assay: Anticancer activity against human T24 cells xenografted in mouse assessed as tumor inhibition rate at 5 mg/kg measured at day 14 relative to control; format: functional; conditions: T-24, 336 h
T-24 [5] = assay: Anticancer activity against human T24 cells xenografted in mouse assessed as tumor growth inhibition by measuring T/C ratio at 5 mg/kg measured at day 14 relative to control; format: functional
HepG2 [6] = assay: Anticancer activity against human HepG2 cells xenografted in mouse assessed as tumor inhibition rate at 5 mg/kg measured at day 14 relative to control; format: functional; conditions: HepG2, 336 h

SMILES	IC50 (A549)	IC50 (SK-OV-3)	IC50 (L02)	IC50 (SMMC-7721)	IC50 (HepG2 [1])	IC50 (T-24 [2])	T/C (HepG2 [3])	inhibition in vivo at 5 mg/kg (T-24 [4])	T/C (T-24 [5])	inhibition in vivo at 5 mg/kg (HepG2 [6])
O=C1c2cccc3cc([N+](=O)[O-])cc(c23)C(=O)N1Nc1nc2ccccc2s1	44.1 µM	58.8 µM	65.3 µM	> 100 µM	51.3 µM	31.2 µM	–	–	–	–
CNCCCN1C(=O)c2cccc3cc([N+](=O)[O-])cc(c23)C1=O	19.8 µM	28.2 µM	14.3 µM	26.6 µM	10.3 µM	9.03 µM	–	–	–	–
O=C1c2cccc3cc([N+](=O)[O-])cc(c23)C(=O)N1Nc1ccccn1	30 µM	48.2 µM	82.4 µM	> 100 µM	42.7 µM	57.6 µM	–	–	–	–
CN(C)CCN1C(=O)c2cccc3cc([N+](=O)[O-])cc(c23)C1=O [MITONAFIDE]	7.94 µM	6.26 µM	8.51 µM	6.94 µM	10.9 µM	5.01 µM	28.8%	67%	29%	68.3%
